Measured values reported in patent US20110263564A1, “PYRIDINE, BICYCLIC PYRIDINE AND RELATED ANALOGS AS SIRTUIN MODULATORS” (Sirtris Pharmaceuticals, Inc., priority 2008, published 2011).

Molecular target: T1, SIRT1 (Homo sapiens, UniProt Q96EB6)
T1 sequence (Q96EB6 1-747): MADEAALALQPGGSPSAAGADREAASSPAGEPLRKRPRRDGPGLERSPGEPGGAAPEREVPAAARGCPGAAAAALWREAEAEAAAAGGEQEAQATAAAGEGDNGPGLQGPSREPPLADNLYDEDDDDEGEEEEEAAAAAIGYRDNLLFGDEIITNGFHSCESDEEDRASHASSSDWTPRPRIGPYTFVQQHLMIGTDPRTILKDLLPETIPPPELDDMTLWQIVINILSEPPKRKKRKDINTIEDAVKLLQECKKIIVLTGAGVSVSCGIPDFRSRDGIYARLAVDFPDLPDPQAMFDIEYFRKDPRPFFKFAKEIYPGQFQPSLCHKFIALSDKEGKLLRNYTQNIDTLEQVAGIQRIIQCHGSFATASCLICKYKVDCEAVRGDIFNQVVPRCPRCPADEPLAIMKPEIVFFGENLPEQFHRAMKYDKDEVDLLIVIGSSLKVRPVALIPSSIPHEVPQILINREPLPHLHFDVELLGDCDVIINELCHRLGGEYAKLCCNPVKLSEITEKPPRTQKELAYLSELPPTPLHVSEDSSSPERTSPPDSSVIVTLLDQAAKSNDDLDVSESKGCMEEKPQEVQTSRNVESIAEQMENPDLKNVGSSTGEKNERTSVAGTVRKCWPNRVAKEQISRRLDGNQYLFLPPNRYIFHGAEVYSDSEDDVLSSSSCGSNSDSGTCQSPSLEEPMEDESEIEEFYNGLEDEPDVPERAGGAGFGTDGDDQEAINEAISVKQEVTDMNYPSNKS
Assay: Mass spectrometry based assay of SIRT1 activity (deacetylation of a p53-based acetylated peptide)
Format: biochemical
Conditions: 10 nM SIRT1, 0.5 μM peptide substrate, 120 μM βNAD+, 25 minutes at 25° C.; for Emax: read-out: % FOLD ACT. (percent maximum fold activation)
From the text: A mass spectrometry based assay was used to identify modulators of SIRT1 activity. The mass spectrometry based assay utilizes a peptide having 20 amino acid residues as follows: Ac-EE-K(biotin)-GQSTSSHSK(Ac)NleSTEG-K(5TMR)-EE-NH2 (SEQ ID NO: 1) wherein K(Ac) is an acetylated lysine residue and Nle is a norleucine. The peptide is labeled with the fluorophore 5TMR (excitation 540 nm/emission 580 nm) at the C-terminus. The sequence of the peptide substrate is based on p53 with several modifications. In addition, the methionine residue naturally present in the sequence was replaced with the norleucine because the methionine may be susceptible to oxidation during synthesis and purification.
The mass spectrometry assay is conducted as follows: 0.5 μM peptide substrate and 120 μM βNAD^+ is incubated with 10 nM SIRT1 for 25 minutes at 25° C. in a reaction buffer (50 mM Tris-acetate pH 8, 137 mM NaCl, 2.7 mM KCl, 1 mM MgCl2, 5 mM DTT, 0.05% BSA). Test compounds may be added to the reaction as described above. […] After the 25 minute incubation with SIRT1, 10 μL of 10% formic acid is added to stop the reaction. Reactions are sealed and frozen for later mass spec analysis. Determination of the mass of the substrate peptide allows for precise determination of the degree of acetylation (i.e. starting material) as compared to deacetylated peptide (product).
A control for inhibition of sirtuin activity is conducted by adding 1 μL of 500 mM nicotinamide as a negative control at the start of the reaction (e.g., permits determination of maximum sirtuin inhibition). A control for activation of sirtuin activity is conducted using 10 nM of sirtuin protein, with 1 μL of DMSO in place of compound, to determine the amount of deacetylation of the substrate at a given timepoint within the linear range of the assay. This timepoint is the same as that used for test compounds and, within the linear range, the endpoint represents a change in velocity.
For the above assay, SIRT1 protein was expressed and purified as follows. […] The protein was expressed by induction with 1 mM IPTG as an N-terminal His-tag fusion protein at 18° C. overnight and harvested at 30,000×g. Cells were lysed with lysozyme in lysis buffer (50 mM Tris-HCl, 2 mM Tris[2-carboxyethyl]phosphine (TCEP), 10 μM ZnCl2, 200 mM NaCl) and further treated with sonication for 10 min for complete lysis. The protein was purified over a Ni-NTA column (Amersham) and fractions containing pure protein were pooled, concentrated and run over a sizing column (Sephadex S200 26/60 global). The peak containing soluble protein was collected and run on an Ion-exchange column (MonoQ). Gradient elution (200 mM-500 mM NaCl) yielded pure protein. This protein was concentrated and dialyzed against dialysis buffer (20 mM Tris-HCl, 2 mM TCEP) overnight. The protein was aliquoted and frozen at −80° C. until further use.
Sirtuin modulating compounds that activated SIRT1 were identified using the assay described above and are shown below in Table 1 for compounds of Formula (III)). The EC1.5 values represent the concentration of test compounds that result in 150% activation of SIRT1. The EC1.5 values for the activating compounds in Table 1 are represented by A (EC1.5<10.0 μM), B (EC1.5 10-25 μM), C (EC1.5>25 μM). The percent maximum fold activation is represented by A (Fold activation>200%) or B (Fold Activation<200%); “NT” means not tested; “ND” mean not determinable.

SMILES	EC1.5 (concentration of test compound that results in 150% activation of SIRT1)	Emax [%]
O=C(NC1CCCc2ccc(-c3cccc(C(F)(F)F)c3)nc21)c1cncnc1 (stereo not drawn) [Compound 233]	C (EC1.5>25 μM)	
Cc1cnc(C(=O)NC2CCCc3ccc(-c4cccc(C(F)(F)F)c4)nc32)cn1 (stereo not drawn) [Compound 234]	A (EC1.5<10.0 μM)	> 200
CC(NC(=O)c1cscn1)c1cccc(-c2cccc(C(F)(F)F)c2)n1 (stereo not drawn) [Compound 203]	B (EC1.5 10-25 μM)	< 200
O=C(NC1CCOc2ccc(-c3cccc(C(F)(F)F)c3)nc21)c1ccnc(CN2CCOCC2)c1 (stereo not drawn) [Compound 223]	C (EC1.5>25 μM)	
CC(NC(=O)c1cnccn1)c1cccc(-c2cccnc2)n1 (stereo not drawn) [Compound 213]	C (EC1.5>25 μM)	
O=C(NC1CCCc2ccc(-c3cccc(C(F)(F)F)c3)nc21)c1cscn1 (stereo not drawn) [Compound 205]	C (EC1.5>25 μM)	< 200
O=C(NC1CCCc2ccc(-c3cccc(C(F)(F)F)c3)nc21)c1ccccn1 (stereo not drawn) [Compound 231]	A (EC1.5<10.0 μM)	> 200
CC(C(=O)Nc1cnccn1)c1cccc(-c2cccc(C(F)(F)F)c2)n1 (stereo not drawn) [Compound 214, N-2-pyrazinyl-2-{6-[3-(trifluoromethyl)phenyl]-2-pyridinyl}propanamide]	C (EC1.5>25 μM)	
O=C(NC1CCCc2ccc(-c3cccc(C(F)(F)F)c3)nc21)c1cccc(N2CCCC2)n1 (stereo not drawn) [Compound 235]	A (EC1.5<10.0 μM)	< 200

Further lines, results first:

EC1.5 (concentration of test compound that results in 150% activation of SIRT1)	Emax [%]	SMILES
C (EC1.5>25 μM)		O=C(NC1CCCc2ccc(-c3cccc(C(F)(F)F)c3)nc21)c1ccnc(CN2CCOCC2)c1 (stereo not drawn) [Compound 238]
A (EC1.5<10.0 μM)	> 200	O=C(NC1CCCc2ccc(-c3cc(C(F)(F)F)ccc3F)nc21)c1cnccn1 (stereo not drawn) [Compound 251]
A (EC1.5<10.0 μM)	< 200	O=C(NC1CCCc2ccc(-c3ccc(F)c(C(F)(F)F)c3)nc21)c1cnccn1 (stereo not drawn) [Compound 254]
C (EC1.5>25 μM)		O=C(NC1CCCc2ccc(-c3cccc(C(F)(F)F)c3)nc21)c1cccnc1OCC(O)CO (stereo not drawn) [Compound 243]
A (EC1.5<10.0 μM)	> 200	O=C(Nc1nc(CN2CCOCC2)cs1)C1CCCc2ccc(-c3cccc(C(F)(F)F)c3)nc21 (stereo not drawn) [Compound 294]
B (EC1.5 10-25 μM)	< 200	Cc1cc(NC(=O)C2CCCc3ccc(-c4cccc(C(F)(F)F)c4)nc32)sn1 (stereo not drawn) [Compound 282]
C (EC1.5>25 μM)		Cc1ccnc(NC(=O)C2CCCc3ccc(-c4cccc(C(F)(F)F)c4)nc32)n1 (stereo not drawn) [Compound 292]
C (EC1.5>25 μM)		O=C(NC1CCCc2ccc(-c3ccncc3)nc21)c1cnccn1 (stereo not drawn) [Compound 247]
C (EC1.5>25 μM)		Cc1ccc(-c2ccc3c(n2)C(NC(=O)c2cnccn2)CCC3)cn1 (stereo not drawn) [Compound 248]
C (EC1.5>25 μM)		O=C(NC1CCCc2ccc(-c3ccccc3C(F)(F)F)nc21)c1cnccn1 (stereo not drawn) [Compound 253]
B (EC1.5 10-25 μM)	< 200	O=C(Nc1cnccn1)C1CCCc2ccc(-c3cccc(C(F)(F)F)c3)nc21 (stereo not drawn) [Compound 289]
B (EC1.5 10-25 μM)	< 200	O=C(NC1CCCc2ccc(-c3cccc(C(F)(F)F)c3)nc21)c1cccc(CN2CCCC2)c1 (stereo not drawn) [Compound 237]
C (EC1.5>25 μM)		O=C(Nc1cccc(CN2CCOCC2)n1)C1CCCc2ccc(-c3cccc(C(F)(F)F)c3)nc21 (stereo not drawn) [Compound 297]
